Each structure is given as a SMILES string. Where a SMILES comes first, the peptide text is derived from it. [ ]: non-standard residue; d: D form. Dmt = Cc1cc(O)cc(C)c1C[C@H](N)C(=O)O

The experiment concerns LUVs containing 20% TOCL or POPG in POPC background. In words: Fluorescent reporters of lipid dynamics and packing (DPH anisotropy, laurdan and prodan GP). Here is the method:
Figure 4. Effects of SS-31 on structural properties of model membranes. […] LUVs composed of 20% anionic lipid (TOCL, MLCL, or POPG) in POPC background were measured in the absence or presence of peptide ([SS-31]/[lipid]^eff = 1:5) as indicated. A, synchrotron SAXS measurements showing background-subtracted scattering density profiles for LUVs in the absence (black) or presence (red) of SS-31. B, ^31P solid-state NMR spectra of LUVs in the absence (bottom spectra) or presence (top spectra) of SS-31. C, SS-31 alters lipid packing interactions. Shown are changes in laurdan and prodan GP values (ΔGP) with increasing [SS-31] for LUVs containing 20% TOCL or POPG in POPC background as indicated. Data and fits in gray show SS-31 fractional saturation (calculated from Fig. 2A, [lipid]^eff = 25 μM). […]
We therefore addressed whether SS-31 altered lipid interactions within these model bilayers. […] Using 1,6-diphenyl-1,3,5-hexatriene (DPH) anisotropy (〈r〉^DPH) as a readout of the fluid dynamics of hydrocarbon tails, we observed no effect of SS-31 in TOCL- or POPG-containing membranes (Fig. S10, D and E). […]
Steady-state fluorescence measurements were performed with a Fluorolog 3-22 spectrofluorometer (HORIBA Jobin-Yvon) equipped with photon-counting electronics, double-grating excitation and emission monochromators, automated Glan–Thompson polarizers, and a 450-watt xenon lamp. […]

For `Cc1cc(O)cc(C)c1C[C@H](NC(=O)[C@H](N)CCCNC(=N)N)C(=O)N[C@@H](CCCCN)C(=O)N[C@@H](Cc1ccccc1)C(N)=O` [SS-31, D-Arg-2′6′-dimethyl-Tyr-Lys-Phe-NH2] (H-[dR][Dmt]KF-NH2), the “effect on DPH anisotropy (fluid dynamics of hydrocarbon tails)” value (TOCL- or POPG-containing membranes) was “no effect”. Further, the “effect on laurdan and prodan generalized polarization (GP^LAU, GP^PRO)” value (increasing [SS-31], 20% TOCL or POPG LUVs, n = 3) was “modest, yet repeatable and saturable, increases”.

Values taken from article PMC7247319, “The mitochondria-targeted peptide SS-31 binds lipid bilayers and modulates surface electrostatics as a key component of its mechanism of action” (The Journal of Biological Chemistry, 2020).
